What was measured:
DLD1 reporter = assay: reporter assay (DLD1 reporter assay); assay type: cell-based; details: read-out: DLD1 4% Abs IC50; DLD1 4%
COLO320DM cells = assay: COLO320DM proliferation assay; assay type: cell-based, human; details: read-out: COLO320DM Proliferation Abs IC50
Description: Various technologies can be utilized to assess technologies of the present disclosure. For example, in some embodiments, solubility, LogD, interactions with targets, etc. of various agents such as stapled peptides were assessed using technologies described in WO 2022/261257 (e.g., those in its Examples). In some embodiments, solubility, shake flask LogD, and binding to beta-catenin were assessed. In some embodiments, an assay for assessing interactions, e.g., with beta-catenin, was fluorescence polarization as described in WO 2022/261257. In some embodiments, an assay was Nano-BRET target engagement assay that assessed beta-catenin/TCF4 engagement as described in WO 2022/261257. In some embodiments, an assay was a reporter assay as reported in Example 4 of WO 2022/261257. In some embodiments, an assay was a COLO320DM proliferation assay as reported in Example 4 of WO 2022/261257.
Among other things, provided technologies can inhibit proliferation of various cells including various cancer cells. In some embodiments, provided technologies modulate WNT specific transcription. In some embodiments, provided technologies induce cell cycle arrest. In some embodiments, provided technologies induce G1 cell cycle arrest. In some embodiments, provided technologies increased proportion of cells in G1 phase of cell cycle. As confirmed in FIG. 3, provided technologies can inhibit proliferation of COLO320DM, which is a colorectal cell line comprising various mutations such as APC, TP53, etc., modulate WNT specific transcription such as of AXIN2 and CXCL12, and induce G1 cell cycle arrest. In some embodiments, it was confirmed that provided technologies can reduce proportion of cells in S phase of cell cycle.

| Structure (SMILES) | IC50 (DLD1 reporter) [µM] | IC50 (COLO320DM cells) [µM] |
| --- | --- | --- |
| CC(=O)N1CCC[C@]12CC=CCCCC1(CCCC=CCCCOC(=O)N3CC[C@@]4(C3)NC(=O)[C@H](CCCCNC(=O)CC[C@@H](C(=O)N3CCC[C@H]3CO)NC(=O)[C@H](Cc3csc5ccccc35)NC(=O)[C@H](Cc3ccsc3)NC4=O)NC(=O)[C@H](Cc3ccccc3)NC(=O)[C@H](C)NC(=O)[C@H](C)NC(=O)[C@H](Cc3cccc(C(=O)O)c3)NC(=O)[C@H](CC(=O)O)NC1=O)NC(=O)[C@H](CC(C)(C)C)NC(=O)[C@H](CC(=O)O)NC2=O (relative stereo) [I-64, Ac-PL3-Asp-Npg-B5-Asp-3COOHF-Ala-Ala-Phe-Lys*3-PyrS2-3Thi-BztA-GlnR*3-Prool] | 1 to 5 | 10 to 20 |
| CC(=O)N1CCC[C@]12CC=CCCCC1(CCCC=CCCCOC(=O)N3CC[C@@]4(C3)NC(=O)[C@H](CCCCNC(=O)CC[C@@H](C(=O)N[C@@H](CC(C)C)C(=O)N[C@@H](CO)C(N)=O)NC(=O)[C@H](Cc3csc5ccccc35)NC(=O)[C@H](Cc3ccccc3C(F)(F)F)NC4=O)NC(=O)[C@H](Cc3ccccc3)NC(=O)[C@H](C)NC(=O)C(C)(C)NC(=O)[C@H](Cc3cccc(C(=O)O)c3)NC(=O)[C@H](CC(=O)O)NC1=O)NC(=O)[C@H](CC(C)(C)C)NC(=O)[C@H](CC(=O)O)NC2=O (relative stereo) [I-138, Ac-PL3-Asp-Npg-B5-Asp-3COOHF-Aib-Ala-Phe-Lys*3-PyrS2-2F3MeF-BztA-GlnR*3-Leu-Ser-NH2] | ≤ 1 | ≤ 10 |
| CC(=O)N1CCC[C@]12CC=CCCCC1(CCCC=CCCCOC(=O)N3CC[C@@]4(C3)NC(=O)[C@H](CCCCn3cc(nn3)COC[C@@H](C(=O)N[C@@H](C)C(N)=O)NC(=O)[C@H](Cc3csc5ccccc35)NC(=O)[C@H](Cc3ccsc3)NC4=O)NC(=O)[C@H](Cc3ccccc3)NC(=O)[C@H](C)NC(=O)C(C)(C)NC(=O)[C@H](Cc3cccc(C(=O)O)c3)NC(=O)[C@H](CC(=O)O)NC1=O)NC(=O)[C@H](CC(C)(C)C)NC(=O)[C@H](CC(=O)O)NC2=O (relative stereo) [I-262, Ac-PL3-Asp-Npg-B5-Asp-3COOHF-Aib-Ala-Phe-TriAzLys*3-PyrS2-3Thi-BztA-sCH2S*3-Ala-NH2] | ≤ 1 | ≤ 10 |
| CC(=O)N1CCC[C@]12CC=CCCCC1(CCCC=CCCCOC(=O)N3CC[C@@]4(C3)NC(=O)[C@H](CCCCNC(=O)CC[C@@H](C(=O)N[C@@H](C)C(N)=O)NC(=O)[C@H](Cc3csc5ccccc35)NC(=O)[C@H](Cc3ccsc3)NC4=O)NC(=O)[C@H](Cc3ccccc3)NC(=O)[C@H](C)NC(=O)C(C)(C)NC(=O)[C@H](Cc3cccc(C(=O)O)c3)NC(=O)[C@H](CC(=O)O)NC1=O)NC(=O)[C@H](CCCN1CCOCC1)NC(=O)[C@H](CC(=O)O)NC2=O (relative stereo) [I-313, Ac-PL3-Asp-MorphNva-B5-Asp-3COOHF-Aib-Ala-Phe-Lys*3-PyrS2-3Thi-BztA-GlnR*3-Ala-NH2] | – | > 20 |
| CC(=O)N1CCC[C@]12CC=CCCCC1(CCCC=CCCCOC(=O)N3CC[C@@]4(C3)NC(=O)[C@H](CCCCNC(=O)CC[C@@H](C(=O)N[C@@H](C)C(N)=O)NC(=O)[C@H](Cc3csc5ccccc35)NC(=O)[C@H](Cc3ccccc3C)NC4=O)NC(=O)[C@H](Cc3ccccc3)NC(=O)[C@H](C)NC(=O)C(C)(C)NC(=O)[C@H](Cc3cccc(C(=O)O)c3)NC(=O)[C@H](CC(=O)O)NC1=O)NC(=O)[C@H](CC(C)(C)C)NC(=O)[C@H](CC(=O)O)NC2=O (relative stereo) [I-294, Ac-PL3-Asp-Npg-B5-Asp-3COOHF-Aib-Ala-Phe-Lys*3-PyrS2-2MeF-BztA-GlnR*3-Ala-NH2] | – | ≤ 10 |
| CC(=O)N1CCC[C@]12CC=CCCCC1(CCCC=CCCCOC(=O)N3CC[C@@]4(C3)NC(=O)[C@H](CCCCNC(=O)CC[C@@H](C(=O)N[C@@H](C)C(N)=O)NC(=O)[C@H](Cc3csc5ccccc35)NC(=O)[C@H](Cc3ccncc3)NC4=O)NC(=O)[C@H](Cc3ccccc3)NC(=O)[C@H](C)NC(=O)C(C)(C)NC(=O)[C@H](Cc3cccc(C(=O)O)c3)NC(=O)[C@H](CC(=O)O)NC1=O)NC(=O)[C@H](CC(C)(C)C)NC(=O)[C@H](CC(=O)O)NC2=O (relative stereo) [I-301, Ac-PL3-Asp-Npg-B5-Asp-3COOHF-Aib-Ala-Phe-Lys*3-PyrS2-4PyrA-BztA-GlnR*3-Ala-NH2] | – | > 20 |
| CC(=O)N1CCC[C@@]1(C)C(=O)N[C@@H](CC(=O)O)C(=O)N[C@H](C(=O)N[C@]1(C)CCCCCCCCOC(=O)N2CC[C@@]3(C2)NC(=O)[C@H](CCCCNC(=O)CC[C@@H](C(=O)N[C@@H](C)C(N)=O)NC(=O)[C@H](Cc2csc4ccccc24)NC(=O)[C@H](Cc2ccsc2)NC3=O)NC(=O)[C@H](Cc2ccccc2)NC(=O)[C@H](C)NC(=O)C(C)(C)NC(=O)[C@H](Cc2cccc(C(=O)O)c2)NC(=O)[C@H](CC(=O)O)NC1=O)C(C)C (relative stereo) [I-237, Ac-MePro-Asp-Val-R5-Asp-3COOHF-Aib-Ala-Phe-Lys*3-PyrS2-3Thi-BztA-GlnR*3-Ala-NH2] | – | > 20 |
| CCCC[C@@H]1NC(=O)[C@H](CC(=O)O)NC(=O)[C@]2(CC=CCCCC3(CCCC=CCCCOC(=O)N4CC[C@@]5(C4)NC(=O)[C@H](CCCCNC(=O)CC[C@@H](C(=O)N[C@@H](C)C(N)=O)NC(=O)[C@H](Cc4csc6ccccc46)NC(=O)[C@H](Cc4ccsc4)NC5=O)NC(=O)[C@H](Cc4ccccc4)NC(=O)[C@H](C)NC(=O)C(C)(C)NC(=O)[C@H](Cc4cccc(C(=O)O)c4)NC(=O)[C@H](CC(=O)O)NC3=O)NC1=O)CCCN2C(C)=O (relative stereo) [I-245, Ac-PL3-Asp-nLeu-B5-Asp-3COOHF-Aib-Ala-Phe-Lys*3-PyrS2-3Thi-BztA-GlnR*3-Ala-NH2] | – | ≤ 10 |
| CC(=O)N1CCC[C@]12CC=CCCCC1(CCCC=CCCCOC(=O)N3CC[C@@]4(C3)NC(=O)[C@H](CCCCNC(=O)CC[C@@H](C(=O)N[C@@H](C)C(N)=O)NC(=O)[C@H](Cc3csc5ccccc35)NC(=O)[C@H](Cc3ccsc3)NC4=O)NC(=O)[C@H](Cc3ccccc3)NC(=O)[C@H](C)NC(=O)[C@H](Cc3ccccc3)NC(=O)[C@H](Cc3cccc(C(=O)O)c3)NC(=O)[C@H](CC(=O)O)NC1=O)NC(=O)[C@H](CC(C)(C)C)NC(=O)[C@H](CC(=O)O)NC2=O (relative stereo) [I-386, Ac-PL3-Asp-Npg-B5-Asp-3COOHF-Phe-Ala-Phe-Lys*3-PyrS2-3Thi-BztA-GlnR*3-Ala-NH2] | – | > 20 |
| CC(=O)N1CCC[C@]12CC=CCCCC1(CCCC=CCCCOC(=O)N3CC[C@@]4(C3)NC(=O)[C@H](CCCCNC(=O)CC[C@@H](C(=O)N[C@@H](C)C(N)=O)NC(=O)[C@H](Cc3csc5ccccc35)NC(=O)[C@H](Cc3ccsc3)NC4=O)NC(=O)[C@H](Cc3ccccc3)NC(=O)[C@H](C)NC(=O)C(C)(C)NC(=O)[C@H](Cc3cccc(C(=O)O)c3)NC(=O)[C@H](CC(=O)O)NC1=O)NC(=O)[C@H](C1CCCCC1)NC(=O)[C@H](CC(=O)O)NC2=O (single isomer, unassigned) [I-253, Ac-PL3-Asp-Chg-B5-Asp-3COOHF-Aib-Ala-Phe-Lys*3-PyrS2-3Thi-BztA-GlnR*3-Ala-NH2] | – | ≤ 10 |
| CC(=O)N1CCC[C@]12CC=CCCCC1(CCCC=CCCCOC(=O)N3CC[C@@]4(C3)NC(=O)[C@H](CCCCNC(=O)CC[C@@H](C(=O)N[C@@H](C)C(N)=O)NC(=O)[C@H](Cc3csc5ccccc35)NC(=O)[C@H](Cc3ccccn3)NC4=O)NC(=O)[C@H](Cc3ccccc3)NC(=O)[C@H](C)NC(=O)C(C)(C)NC(=O)[C@H](Cc3cccc(C(=O)O)c3)NC(=O)[C@H](CC(=O)O)NC1=O)NC(=O)[C@H](CC(C)(C)C)NC(=O)[C@H](CC(=O)O)NC2=O (relative stereo) [I-299, Ac-PL3-Asp-Npg-B5-Asp-3COOHF-Aib-Ala-Phe-Lys*3-PyrS2-2PyrA-BztA-GlnR*3-Ala-NH2] | – | 10 to 20 |
